Measured values published in ChEMBL document CHEMBL5055685, “Discovery of the First Potent IDO1/IDO2 Dual Inhibitors: A Promising Strategy for Cancer Immunotherapy” (J Med Chem, 2021).
The source made the active and inactive calls.

Key:
[1] = target: Serine/threonine-protein kinase Nek3 (Homo sapiens) (UniProt P51956); experiment: Inhibition of NEK3 (unknown origin) at 1 uM
[2] = target: Mitogen-activated protein kinase kinase kinase kinase 1 (Homo sapiens) (UniProt Q92918); experiment: Inhibition of HPK1 (unknown origin) at 1 uM
[3] = target: Mitogen-activated protein kinase 11 (Homo sapiens) (UniProt Q15759); experiment: Inhibition of p38beta (unknown origin) at 1 uM
[4] = target: Serine/threonine-protein kinase Chk2 (Homo sapiens) (UniProt O96017); experiment: Inhibition of CHK2 (unknown origin) at 1 uM
[5] = target: PAS domain-containing serine/threonine-protein kinase (Homo sapiens) (UniProt Q96RG2); experiment: Inhibition of PASK (unknown origin) at 1 uM
[6] = Metabolic stability in rat liver microsomes assessed as rate constant; type: ADME, Microsome
[7] = target: Serine/threonine-protein kinase Chk1 (Homo sapiens) (UniProt O14757); experiment: Inhibition of CHK1 (unknown origin) at 1 uM
[8] = target: Platelet-derived growth factor receptor beta (Homo sapiens) (UniProt P09619); experiment: Inhibition of PDGFRbeta (unknown origin) at 1 uM
[9] = target: CDK18/Cyclin Y (Homo sapiens) (UniProt Q07002+Q8ND76); experiment: Inhibition of CDK18/cyclin-Y (unknown origin) at 1 uM; type: protein-complex assay
[10] = target: Discoidin domain-containing receptor 2 (Homo sapiens) (UniProt Q16832); experiment: Inhibition of DDR2 (unknown origin) at 1 uM
[11] = target: Serine/threonine-protein kinase LATS2 (Homo sapiens) (UniProt Q9NRM7); experiment: Inhibition of LATS2 (unknown origin) at 1 uM
[12] = target: Proto-oncogene tyrosine-protein kinase receptor Ret (Homo sapiens) (UniProt P07949); experiment: Inhibition of RET (unknown origin) at 1 uM

Chain of Serine/threonine-protein kinase Chk2 (Homo sapiens) (O96017 whole entry, the tested form may be a part): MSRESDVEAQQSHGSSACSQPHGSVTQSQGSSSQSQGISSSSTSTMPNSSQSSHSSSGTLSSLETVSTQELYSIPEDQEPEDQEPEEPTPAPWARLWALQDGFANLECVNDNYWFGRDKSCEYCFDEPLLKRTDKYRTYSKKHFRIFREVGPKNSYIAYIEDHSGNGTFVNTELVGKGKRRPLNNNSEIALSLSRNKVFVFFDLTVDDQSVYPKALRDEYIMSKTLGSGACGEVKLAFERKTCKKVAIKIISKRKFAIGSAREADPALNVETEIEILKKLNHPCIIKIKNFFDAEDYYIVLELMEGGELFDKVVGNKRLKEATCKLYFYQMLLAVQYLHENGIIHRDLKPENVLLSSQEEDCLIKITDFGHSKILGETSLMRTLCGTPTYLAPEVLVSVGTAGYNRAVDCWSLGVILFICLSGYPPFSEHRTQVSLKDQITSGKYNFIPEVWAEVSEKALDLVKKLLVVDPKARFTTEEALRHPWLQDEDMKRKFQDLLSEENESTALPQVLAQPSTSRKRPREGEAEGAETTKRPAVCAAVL
Chain of Serine/threonine-protein kinase Nek3 (Homo sapiens) (P51956 whole entry): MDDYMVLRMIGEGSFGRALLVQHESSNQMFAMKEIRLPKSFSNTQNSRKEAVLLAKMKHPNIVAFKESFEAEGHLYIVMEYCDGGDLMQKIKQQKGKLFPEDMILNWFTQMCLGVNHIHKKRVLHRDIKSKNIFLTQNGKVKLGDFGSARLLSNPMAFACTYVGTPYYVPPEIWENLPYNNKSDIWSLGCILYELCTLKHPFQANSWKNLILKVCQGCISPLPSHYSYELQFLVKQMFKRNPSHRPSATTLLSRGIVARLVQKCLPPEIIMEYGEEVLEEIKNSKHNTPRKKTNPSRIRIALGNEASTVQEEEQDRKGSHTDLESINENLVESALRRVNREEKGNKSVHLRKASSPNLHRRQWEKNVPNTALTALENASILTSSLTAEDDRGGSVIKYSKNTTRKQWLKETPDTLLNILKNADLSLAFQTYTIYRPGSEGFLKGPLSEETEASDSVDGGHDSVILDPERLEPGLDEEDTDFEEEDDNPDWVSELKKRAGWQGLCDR
Chain of Serine/threonine-protein kinase LATS2 (Homo sapiens) (Q9NRM7 whole entry): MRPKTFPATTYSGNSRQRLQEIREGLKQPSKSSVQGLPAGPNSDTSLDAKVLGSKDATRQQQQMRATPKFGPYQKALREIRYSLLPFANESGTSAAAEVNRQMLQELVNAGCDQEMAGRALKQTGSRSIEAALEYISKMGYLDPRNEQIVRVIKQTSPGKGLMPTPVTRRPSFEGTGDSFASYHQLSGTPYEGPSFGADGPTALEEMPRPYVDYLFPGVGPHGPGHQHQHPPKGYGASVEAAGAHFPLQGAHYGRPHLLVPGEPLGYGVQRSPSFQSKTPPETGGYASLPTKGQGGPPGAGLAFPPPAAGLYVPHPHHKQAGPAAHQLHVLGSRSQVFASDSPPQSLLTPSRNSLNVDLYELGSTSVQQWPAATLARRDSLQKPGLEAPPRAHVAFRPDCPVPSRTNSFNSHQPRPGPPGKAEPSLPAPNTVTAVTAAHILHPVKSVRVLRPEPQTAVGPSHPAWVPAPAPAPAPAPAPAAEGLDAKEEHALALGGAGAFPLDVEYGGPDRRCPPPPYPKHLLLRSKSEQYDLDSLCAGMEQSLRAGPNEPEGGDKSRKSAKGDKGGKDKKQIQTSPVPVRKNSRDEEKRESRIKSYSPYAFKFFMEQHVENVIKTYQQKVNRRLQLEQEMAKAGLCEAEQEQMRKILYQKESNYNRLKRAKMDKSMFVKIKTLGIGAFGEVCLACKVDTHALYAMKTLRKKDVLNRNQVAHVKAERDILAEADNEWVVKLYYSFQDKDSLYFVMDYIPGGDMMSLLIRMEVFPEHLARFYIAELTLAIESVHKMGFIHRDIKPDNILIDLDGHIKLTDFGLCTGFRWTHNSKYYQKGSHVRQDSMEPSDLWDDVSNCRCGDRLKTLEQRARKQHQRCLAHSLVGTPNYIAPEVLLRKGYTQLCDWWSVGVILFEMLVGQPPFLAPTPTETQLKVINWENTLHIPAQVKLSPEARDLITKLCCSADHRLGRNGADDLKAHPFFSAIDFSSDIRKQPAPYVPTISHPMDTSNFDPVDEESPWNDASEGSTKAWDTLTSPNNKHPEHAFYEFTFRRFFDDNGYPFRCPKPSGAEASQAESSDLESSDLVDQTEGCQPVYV
Chain of Serine/threonine-protein kinase Chk1 (Homo sapiens) (O14757 whole entry): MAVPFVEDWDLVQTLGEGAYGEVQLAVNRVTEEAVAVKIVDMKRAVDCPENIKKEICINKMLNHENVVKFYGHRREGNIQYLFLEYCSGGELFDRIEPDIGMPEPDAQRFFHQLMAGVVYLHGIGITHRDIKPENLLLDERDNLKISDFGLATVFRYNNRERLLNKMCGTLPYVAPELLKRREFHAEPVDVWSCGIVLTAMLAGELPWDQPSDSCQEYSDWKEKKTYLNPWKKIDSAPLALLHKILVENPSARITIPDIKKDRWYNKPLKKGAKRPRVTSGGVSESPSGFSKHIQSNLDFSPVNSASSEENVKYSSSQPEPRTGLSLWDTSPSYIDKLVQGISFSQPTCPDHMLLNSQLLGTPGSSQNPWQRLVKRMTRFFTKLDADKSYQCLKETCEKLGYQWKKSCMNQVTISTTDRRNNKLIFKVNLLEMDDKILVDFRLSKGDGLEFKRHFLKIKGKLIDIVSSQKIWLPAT
Chain of Platelet-derived growth factor receptor beta (Homo sapiens) (P09619 whole entry): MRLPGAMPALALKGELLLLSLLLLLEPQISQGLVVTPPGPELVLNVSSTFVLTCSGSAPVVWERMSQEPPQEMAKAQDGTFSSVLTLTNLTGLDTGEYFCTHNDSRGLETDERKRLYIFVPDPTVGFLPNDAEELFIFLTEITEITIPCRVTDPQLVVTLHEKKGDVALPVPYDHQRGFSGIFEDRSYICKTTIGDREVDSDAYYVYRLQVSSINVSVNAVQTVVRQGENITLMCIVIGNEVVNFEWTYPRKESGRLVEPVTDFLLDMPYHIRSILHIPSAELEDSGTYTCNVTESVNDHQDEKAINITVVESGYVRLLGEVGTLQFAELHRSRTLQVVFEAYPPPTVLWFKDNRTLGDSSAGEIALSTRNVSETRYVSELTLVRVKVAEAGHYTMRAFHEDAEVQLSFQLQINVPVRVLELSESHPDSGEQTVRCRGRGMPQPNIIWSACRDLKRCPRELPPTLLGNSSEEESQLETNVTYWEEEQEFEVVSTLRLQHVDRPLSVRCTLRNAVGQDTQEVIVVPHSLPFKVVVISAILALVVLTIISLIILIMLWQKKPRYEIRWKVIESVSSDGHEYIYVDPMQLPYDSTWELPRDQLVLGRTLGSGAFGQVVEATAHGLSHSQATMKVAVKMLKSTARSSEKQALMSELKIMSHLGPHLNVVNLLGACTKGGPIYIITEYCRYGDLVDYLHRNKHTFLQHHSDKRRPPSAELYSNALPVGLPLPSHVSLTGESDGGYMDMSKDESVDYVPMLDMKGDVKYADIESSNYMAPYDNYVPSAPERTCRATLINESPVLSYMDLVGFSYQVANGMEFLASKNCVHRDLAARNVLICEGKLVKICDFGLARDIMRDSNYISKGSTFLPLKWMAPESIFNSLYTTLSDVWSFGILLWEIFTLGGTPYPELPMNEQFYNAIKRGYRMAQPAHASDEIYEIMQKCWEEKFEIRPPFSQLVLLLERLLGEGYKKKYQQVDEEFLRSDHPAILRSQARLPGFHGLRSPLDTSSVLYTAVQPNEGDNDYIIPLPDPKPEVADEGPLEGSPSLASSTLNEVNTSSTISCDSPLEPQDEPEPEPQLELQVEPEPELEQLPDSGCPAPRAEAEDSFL
Chain of PAS domain-containing serine/threonine-protein kinase (Homo sapiens) (Q96RG2 whole entry, the tested form may be a part): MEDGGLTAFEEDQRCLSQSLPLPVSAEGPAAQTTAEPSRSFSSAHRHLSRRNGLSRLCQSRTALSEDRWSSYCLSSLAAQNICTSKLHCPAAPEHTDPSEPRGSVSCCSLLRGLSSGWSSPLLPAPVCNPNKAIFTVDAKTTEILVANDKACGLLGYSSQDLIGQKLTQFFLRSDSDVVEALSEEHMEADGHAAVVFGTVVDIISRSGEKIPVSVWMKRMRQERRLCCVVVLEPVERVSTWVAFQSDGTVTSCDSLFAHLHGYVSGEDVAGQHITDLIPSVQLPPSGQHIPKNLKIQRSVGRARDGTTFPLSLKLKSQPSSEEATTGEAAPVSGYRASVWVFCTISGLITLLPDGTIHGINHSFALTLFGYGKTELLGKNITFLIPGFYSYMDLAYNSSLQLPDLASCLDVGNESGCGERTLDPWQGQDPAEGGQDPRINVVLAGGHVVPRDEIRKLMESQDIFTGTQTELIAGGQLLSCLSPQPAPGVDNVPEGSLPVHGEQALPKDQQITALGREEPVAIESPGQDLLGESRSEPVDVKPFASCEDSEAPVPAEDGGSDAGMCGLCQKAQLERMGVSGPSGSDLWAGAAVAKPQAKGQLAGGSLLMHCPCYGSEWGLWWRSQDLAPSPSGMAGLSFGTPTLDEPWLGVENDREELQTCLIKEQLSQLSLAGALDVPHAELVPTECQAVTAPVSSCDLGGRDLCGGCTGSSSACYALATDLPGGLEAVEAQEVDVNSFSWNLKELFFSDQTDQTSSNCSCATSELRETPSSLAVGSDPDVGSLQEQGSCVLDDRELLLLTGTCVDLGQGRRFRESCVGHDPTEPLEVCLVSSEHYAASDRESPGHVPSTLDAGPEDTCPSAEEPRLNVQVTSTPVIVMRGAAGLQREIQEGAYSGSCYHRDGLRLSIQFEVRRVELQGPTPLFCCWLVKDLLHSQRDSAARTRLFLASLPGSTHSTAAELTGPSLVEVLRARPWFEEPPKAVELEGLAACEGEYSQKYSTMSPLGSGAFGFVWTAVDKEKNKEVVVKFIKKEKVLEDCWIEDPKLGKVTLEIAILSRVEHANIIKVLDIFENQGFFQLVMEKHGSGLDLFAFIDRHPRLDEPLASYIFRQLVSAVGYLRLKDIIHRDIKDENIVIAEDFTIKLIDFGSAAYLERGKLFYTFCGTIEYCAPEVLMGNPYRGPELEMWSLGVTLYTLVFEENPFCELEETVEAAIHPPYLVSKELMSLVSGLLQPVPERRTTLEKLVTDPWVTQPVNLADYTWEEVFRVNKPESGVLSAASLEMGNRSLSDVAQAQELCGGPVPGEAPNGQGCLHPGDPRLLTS

OCCOCc1cn(CCNc2nonc2/C(=N/O)Nc2ccc(F)c(Br)c2)nn1
inactive: inhibition [1] | inhibition [2] | inhibition [3] | inhibition [4] | inhibition [5] | inhibition [7] | inhibition [8] | inhibition [9] | inhibition [10] | inhibition [11] | inhibition [12]
0.000545 s⁻¹: k el [6]
